Target: TRPM7 (Mus musculus, UniProt Q923J1)
Test: Fura-2 Ca2+ imaging in LS8 cells
Type: cell-based

TRPM7, sequence (Q923J1 whole entry): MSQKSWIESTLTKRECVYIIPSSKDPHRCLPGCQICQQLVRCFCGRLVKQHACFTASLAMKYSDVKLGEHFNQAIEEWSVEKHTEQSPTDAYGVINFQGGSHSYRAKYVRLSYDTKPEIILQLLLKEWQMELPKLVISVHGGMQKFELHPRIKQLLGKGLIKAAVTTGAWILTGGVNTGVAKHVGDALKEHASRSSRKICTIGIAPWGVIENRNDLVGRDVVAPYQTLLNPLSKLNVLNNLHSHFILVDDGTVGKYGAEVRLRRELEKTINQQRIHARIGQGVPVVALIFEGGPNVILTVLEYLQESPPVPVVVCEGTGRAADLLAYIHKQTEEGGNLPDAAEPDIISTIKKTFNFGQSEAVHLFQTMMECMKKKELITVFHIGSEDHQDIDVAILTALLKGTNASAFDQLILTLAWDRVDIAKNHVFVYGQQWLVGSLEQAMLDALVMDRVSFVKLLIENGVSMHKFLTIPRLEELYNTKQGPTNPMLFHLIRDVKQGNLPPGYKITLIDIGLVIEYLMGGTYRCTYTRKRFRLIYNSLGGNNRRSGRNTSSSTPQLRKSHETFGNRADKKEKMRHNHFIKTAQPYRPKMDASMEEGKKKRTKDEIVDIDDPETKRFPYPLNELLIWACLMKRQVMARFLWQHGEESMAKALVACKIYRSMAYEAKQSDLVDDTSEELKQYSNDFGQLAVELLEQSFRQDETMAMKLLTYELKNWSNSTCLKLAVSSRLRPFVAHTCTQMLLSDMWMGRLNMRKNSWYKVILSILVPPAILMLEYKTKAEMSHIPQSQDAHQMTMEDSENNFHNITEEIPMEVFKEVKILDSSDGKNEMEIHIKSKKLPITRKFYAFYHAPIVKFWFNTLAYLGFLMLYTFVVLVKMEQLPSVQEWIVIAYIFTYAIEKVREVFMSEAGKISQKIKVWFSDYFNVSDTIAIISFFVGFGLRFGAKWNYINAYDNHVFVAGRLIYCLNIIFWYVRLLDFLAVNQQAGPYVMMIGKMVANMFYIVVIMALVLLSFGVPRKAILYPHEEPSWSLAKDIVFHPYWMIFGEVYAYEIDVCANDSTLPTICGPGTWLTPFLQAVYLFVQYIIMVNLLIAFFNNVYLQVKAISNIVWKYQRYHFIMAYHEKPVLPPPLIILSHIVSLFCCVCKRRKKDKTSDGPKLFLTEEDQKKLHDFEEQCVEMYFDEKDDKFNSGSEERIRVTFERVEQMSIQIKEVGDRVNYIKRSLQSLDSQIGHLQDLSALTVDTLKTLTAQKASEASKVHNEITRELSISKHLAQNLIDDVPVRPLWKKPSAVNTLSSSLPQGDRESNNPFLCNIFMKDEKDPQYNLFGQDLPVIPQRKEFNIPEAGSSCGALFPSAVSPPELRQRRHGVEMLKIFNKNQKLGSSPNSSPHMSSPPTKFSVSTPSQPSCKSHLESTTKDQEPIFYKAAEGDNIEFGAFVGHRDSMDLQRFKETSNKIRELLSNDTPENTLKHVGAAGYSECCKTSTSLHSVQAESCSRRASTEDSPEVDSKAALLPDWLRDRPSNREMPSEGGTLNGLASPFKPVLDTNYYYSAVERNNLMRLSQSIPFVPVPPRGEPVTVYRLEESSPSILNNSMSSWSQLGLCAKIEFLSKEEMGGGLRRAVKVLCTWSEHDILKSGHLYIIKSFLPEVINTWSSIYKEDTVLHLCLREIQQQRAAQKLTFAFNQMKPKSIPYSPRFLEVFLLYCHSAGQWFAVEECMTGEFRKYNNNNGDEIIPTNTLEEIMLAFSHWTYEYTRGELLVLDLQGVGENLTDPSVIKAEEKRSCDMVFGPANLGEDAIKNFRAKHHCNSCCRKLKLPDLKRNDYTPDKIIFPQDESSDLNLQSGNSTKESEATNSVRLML

Oc1ccc2c3c1O[C@H]1c4oc5ccccc5c4C[C@@]4(O)[C@@H](C2)N(CC2CC2)CC[C@]314 [NAL, naltriben] was tested, and the EC50 was about 45 µM.
